Reference: PubChem BioAssay (NCI)
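96-well plates; 48 h exposure; 5 concentrations. Endpoints by linear interpolation between flanking doses. Not reached: highest tested concentration assigned. At the TGI there is no net growth.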

Key:
Experiment in all cases: growth of human tumour cells (NCI), 48 h
A549 NSCLC = system: A549 NSCLC
HOP-62 NSCLC = system: HOP-62 NSCLC
PC-3 prostate = system: PC-3 prostate
SNB-75 CNS = system: SNB-75 CNS
SN12C renal = system: SN12C renal
EKVX NSCLC = system: EKVX NSCLC
HCT-15 colon = system: HCT-15 colon
T-47D breast = system: T-47D breast
UACC-257 melanoma = system: UACC-257 melanoma
MALME-3M melanoma = system: MALME-3M melanoma
IGROV1 ovarian = system: IGROV1 ovarian
SF-268 CNS = system: SF-268 CNS
SK-MEL-5 melanoma = system: SK-MEL-5 melanoma
DU-145 prostate = system: DU-145 prostate
SK-OV-3 ovarian = system: SK-OV-3 ovarian
SR leukemia = system: SR leukemia
TK-10 renal = system: TK-10 renal
LOX IMVI melanoma = system: LOX IMVI melanoma
MOLT-4 leukemia = system: MOLT-4 leukemia
SW-620 colon = system: SW-620 colon
RXF 393 renal = system: RXF 393 renal
HCC-2998 colon = system: HCC-2998 colon
SK-MEL-28 melanoma = system: SK-MEL-28 melanoma
CAKI-1 renal = system: CAKI-1 renal
MCF7 breast = system: MCF7 breast
COLO 205 colon = system: COLO 205 colon
HL-60(TB) leukemia = system: HL-60(TB) leukemia
KM12 colon = system: KM12 colon
CCRF-CEM leukemia = system: CCRF-CEM leukemia
HT29 colon = system: HT29 colon
M14 melanoma = system: M14 melanoma
RPMI-8226 leukemia = system: RPMI-8226 leukemia
K-562 leukemia = system: K-562 leukemia
MDA-N = system: MDA-N
SF-295 CNS = system: SF-295 CNS
OVCAR-8 ovarian = system: OVCAR-8 ovarian
786-0 renal = system: 786-0 renal
MDA-MB-231 breast = system: MDA-MB-231 breast
UACC-62 melanoma = system: UACC-62 melanoma
NCI-H23 lung = system: NCI-H23 lung
ACHN renal = system: ACHN renal
MDA-MB-435 = system: MDA-MB-435
NCI-H226 lung = system: NCI-H226 lung
HCT-116 colon = system: HCT-116 colon
OVCAR-5 ovarian = system: OVCAR-5 ovarian
OVCAR-4 ovarian = system: OVCAR-4 ovarian
NCI-H522 lung = system: NCI-H522 lung
BT-549 breast = system: BT-549 breast
SNB-19 CNS = system: SNB-19 CNS
UO-31 renal = system: UO-31 renal
SK-MEL-2 melanoma = system: SK-MEL-2 melanoma
NCI/ADR-RES ovarian = system: NCI/ADR-RES ovarian
SF-539 CNS = system: SF-539 CNS
HS 578T breast = system: HS 578T breast
OVCAR-3 ovarian = system: OVCAR-3 ovarian
HOP-92 NSCLC = system: HOP-92 NSCLC
A498 renal = system: A498 renal
NCI-H460 lung = system: NCI-H460 lung
U251 CNS = system: U251 CNS

## C/C(=C\CCC1=CC(=O)OC1)CCC1C2C(=O)CC(C)[C@@]3(C)CC[C@]1(C)[C@@]23C (stereo partly drawn)
A549 NSCLC
  TGI: > 10 µM
HOP-62 NSCLC
  TGI: > 10 µM
PC-3 prostate
  TGI: > 10 µM
SNB-75 CNS
  TGI: > 10 µM
SN12C renal
  TGI: > 10 µM
EKVX NSCLC
  TGI: > 10 µM
HCT-15 colon
  TGI: > 10 µM
T-47D breast
  TGI: > 10 µM
UACC-257 melanoma
  TGI: > 10 µM
MALME-3M melanoma
  TGI: > 10 µM
IGROV1 ovarian
  TGI: > 10 µM
SF-268 CNS
  TGI: > 10 µM
SK-MEL-5 melanoma
  TGI: > 10 µM
DU-145 prostate
  TGI: > 10 µM
SK-OV-3 ovarian
  TGI: > 10 µM
SR leukemia
  TGI: > 10 µM
TK-10 renal
  TGI: > 10 µM
LOX IMVI melanoma
  TGI: > 10 µM
MOLT-4 leukemia
  TGI: > 10 µM
SW-620 colon
  TGI: > 10 µM
RXF 393 renal
  TGI: > 10 µM
HCC-2998 colon
  TGI: > 10 µM
SK-MEL-28 melanoma
  TGI: > 10 µM
CAKI-1 renal
  TGI: > 10 µM
MCF7 breast
  TGI: > 10 µM
COLO 205 colon
  TGI: > 10 µM
HL-60(TB) leukemia
  TGI: > 10 µM
KM12 colon
  TGI: > 10 µM
CCRF-CEM leukemia
  TGI: > 10 µM
HT29 colon
  TGI: > 10 µM
M14 melanoma
  TGI: > 10 µM
RPMI-8226 leukemia
  TGI: > 10 µM
K-562 leukemia
  TGI: > 10 µM
MDA-N
  TGI: > 10 µM
SF-295 CNS
  TGI: > 10 µM
OVCAR-8 ovarian
  TGI: > 10 µM
786-0 renal
  TGI: > 10 µM
MDA-MB-231 breast
  TGI: > 10 µM
UACC-62 melanoma
  TGI: > 10 µM
NCI-H23 lung
  TGI: > 10 µM

## CCOP(=O)(OCC)/C(C#N)=C/c1nc[nH]c1C
A549 NSCLC
  TGI: > 100 µM
HOP-62 NSCLC
  TGI: > 100 µM
ACHN renal
  TGI: > 100 µM
PC-3 prostate
  TGI: > 100 µM
SNB-75 CNS
  TGI: > 100 µM
SN12C renal
  TGI: > 100 µM
EKVX NSCLC
  TGI: > 100 µM
HCT-15 colon
  TGI: > 100 µM
MDA-MB-435
  TGI: > 100 µM
UACC-257 melanoma
  TGI: > 100 µM
NCI-H226 lung
  TGI: > 100 µM
MALME-3M melanoma
  TGI: > 100 µM
IGROV1 ovarian
  TGI: > 100 µM
HCT-116 colon
  TGI: > 100 µM
OVCAR-5 ovarian
  TGI: > 100 µM
OVCAR-4 ovarian
  TGI: > 100 µM
SF-268 CNS
  TGI: > 100 µM
SK-MEL-5 melanoma
  TGI: > 100 µM
NCI-H522 lung
  TGI: > 100 µM
DU-145 prostate
  TGI: > 100 µM
SK-OV-3 ovarian
  TGI: > 100 µM
SR leukemia
  TGI: > 100 µM
BT-549 breast
  TGI: > 100 µM
TK-10 renal
  TGI: > 100 µM
LOX IMVI melanoma
  TGI: > 100 µM
SNB-19 CNS
  TGI: > 100 µM
MOLT-4 leukemia
  TGI: > 100 µM
SW-620 colon
  TGI: > 100 µM
UO-31 renal
  TGI: > 100 µM
RXF 393 renal
  TGI: > 100 µM
HCC-2998 colon
  TGI: > 100 µM
SK-MEL-2 melanoma
  TGI: > 100 µM
NCI/ADR-RES ovarian
  TGI: > 100 µM
SF-539 CNS
  TGI: > 100 µM
HS 578T breast
  TGI: > 100 µM
SK-MEL-28 melanoma
  TGI: > 100 µM
CAKI-1 renal
  TGI: > 100 µM
MCF7 breast
  TGI: > 100 µM
COLO 205 colon
  TGI: > 100 µM
HL-60(TB) leukemia
  TGI: > 100 µM
KM12 colon
  TGI: > 100 µM
OVCAR-3 ovarian
  TGI: > 100 µM
CCRF-CEM leukemia
  TGI: > 100 µM
HOP-92 NSCLC
  TGI: > 100 µM
HT29 colon
  TGI: > 100 µM
M14 melanoma
  TGI: > 100 µM
RPMI-8226 leukemia
  TGI: > 100 µM
K-562 leukemia
  TGI: > 100 µM
A498 renal
  TGI: > 100 µM
MDA-N
  TGI: > 100 µM
SF-295 CNS
  TGI: > 100 µM
OVCAR-8 ovarian
  TGI: > 100 µM
786-0 renal
  TGI: > 100 µM
NCI-H460 lung
  TGI: > 100 µM
U251 CNS
  TGI: > 100 µM
MDA-MB-231 breast
  TGI: > 100 µM
UACC-62 melanoma
  TGI: > 100 µM
NCI-H23 lung
  TGI: > 100 µM
